This passage reports GI50 and TGI results from PubChem BioAssay (NCI).

“And” between values parts separate entries of the source, which are not always exact repeats. Equal entries are not always repeated.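 Test compounds were applied to cells in 96-well plates for 48 hours at 5 doses. GI50 = concentration required for 50% inhibition of growth. TGI marks complete inhibition of growth.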 Where only a bound is given, the exact number is not on record here.

Among the test systems are ACHN renal; HCC-2998 colon; HCT-15 colon; HL-60(TB) leukemia; NCI-H23 lung; OVCAR-8 ovarian; SF-268 CNS; SF-539 CNS; SK-MEL-2 melanoma; SW-620 colon.
Holding throughout (test): growth of human tumour cells (NCI), 48 h

Turning to `c1cc(CNC23CC4CC(CC(C4)C2)C3)cc(C[N+](Cc2cccc(CNC34CC5CC(CC(C5)C3)C4)c2)(Cc2cccc(CNC34CC5CC(CC(C5)C3)C4)c2)Cc2cccc(CNC34CC5CC(CC(C5)C3)C4)c2)c1` (stereo not given), the GI50 in the assay on ACHN renal is 3650 nM; in the assay on HCC-2998 colon, 5110 nM; in the assay with HCT-15 colon it was 4590 nM; in the assay on HL-60(TB) leukemia, 3.64 µM; with NCI-H23 lung it was 6.38 µM; with OVCAR-8 ovarian it was 8640 nM. The GI50 was 6.39 µM in the assay with SF-268 CNS, 4.23 µM in the assay on SF-539 CNS, 4.44 µM with SK-MEL-2 melanoma and 5.23 µM in the assay on SW-620 colon. In addition, the TGI in the assay with ACHN renal came out at 8.92 µM; in the assay on HCC-2998 colon it was 22.2 µM; in the assay on HCT-15 colon, 16.4 µM; in the assay with HL-60(TB) leukemia, 11.3 µM; with NCI-H23 lung it was 26.6 µM; in the assay with OVCAR-8 ovarian, 35.4 µM. For the same compound, the TGI in the assay on SF-268 CNS is 22.6 µM; with SF-539 CNS it was 10.3 µM; in the assay with SK-MEL-2 melanoma it was 13.4 µM; in the assay with SW-620 colon, 16.5 µM.

Regarding `CN1C/C=C\CCOc2cccc(c2)-c2ccnc(n2)Nc2cccc(c2)C1`, the GI50 is 33.2 nM with ACHN renal; 80.2 nM in the assay on HCC-2998 colon; 43.5 nM in the assay on HCT-15 colon; 0.0232 µM with HL-60(TB) leukemia; 0.0717 µM with NCI-H23 lung; 38.5 nM in the assay with OVCAR-8 ovarian. The GI50 in the assay with SF-268 CNS is 0.0561 µM; in the assay on SF-539 CNS it was 0.0508 µM; with SK-MEL-2 melanoma it was 0.0397 µM; with SW-620 colon it was 0.0439 µM. Also, the TGI with ACHN renal amounted to 1.49 µM; with HCC-2998 colon, 0.63 µM; in the assay on HCT-15 colon, 1.96 µM; in the assay with HL-60(TB) leukemia, 0.103 µM; with NCI-H23 lung it was 0.599 µM; with OVCAR-8 ovarian, 0.887 µM. Moreover, the TGI with SF-268 CNS came out at 0.548 µM; in the assay on SF-539 CNS it was 0.227 µM; in the assay with SK-MEL-2 melanoma, 0.132 µM; in the assay on SW-620 colon, 4.49 µM.

For the compound `CC(C)(C)c1ccc2c(c1)S(=O)(=O)Nc1ccccc1NS(=O)(=O)c1cc(C(C)(C)C)ccc1OCCOCCOCCO2`, the TGI with ACHN renal, in the assay on HCC-2998 colon, with HCT-15 colon, in the assay with HL-60(TB) leukemia, in the assay on NCI-H23 lung and in the assay on OVCAR-8 ovarian was greater than 100 µM throughout. For the same compound, the TGI in the assay with SF-268 CNS, in the assay on SF-539 CNS, in the assay on SK-MEL-2 melanoma and with SW-620 colon was greater than 100 µM each time.

For the compound `NCC1Nc2ccccc2[C@@H](O)C1O` (stereo not given in full), the TGI with ACHN renal, in the assay on HCC-2998 colon, in the assay with HCT-15 colon, in the assay on HL-60(TB) leukemia, with NCI-H23 lung and in the assay on OVCAR-8 ovarian was greater than 100 µM in each case. Also, the TGI in the assay on SF-268 CNS, in the assay on SF-539 CNS, in the assay on SK-MEL-2 melanoma and in the assay with SW-620 colon was greater than 100 µM throughout.

Consider `NCCCCN(CCCN)/[N+]([O-])=N\O`, for which the TGI in the assay on ACHN renal, with HCC-2998 colon, with HCT-15 colon, with HL-60(TB) leukemia, with NCI-H23 lung and in the assay on OVCAR-8 ovarian was greater than 100 µM each time. Also, the TGI in the assay with SF-268 CNS, in the assay with SF-539 CNS, in the assay on SK-MEL-2 melanoma and in the assay with SW-620 colon was greater than 100 µM in each case.

Turning to `N=C1C(c2nc3ccccc3s2)=C(O)CN1c1cc(C(F)(F)F)ccc1Cl`, the GI50 in the assay with ACHN renal is 21200 nM; in the assay on HCC-2998 colon, 2730 nM; with HCT-15 colon, 3440 nM; in the assay on HL-60(TB) leukemia it was 5.75 µM; with NCI-H23 lung, 26.3 µM; with OVCAR-8 ovarian, 32900 nM. Moreover, the GI50 was 28.8 µM in the assay on SF-268 CNS, 10 µM in the assay on SF-539 CNS, 29.8 µM with SK-MEL-2 melanoma and 36.4 µM in the assay with SW-620 colon. The TGI in the assay on ACHN renal was greater than 100 µM; in the assay on HCC-2998 colon, 16.3 µM; in the assay on HCT-15 colon it was greater than 100 µM; in the assay with HL-60(TB) leukemia, 30.2 µM; in the assay with NCI-H23 lung it was greater than 100 µM; in the assay on OVCAR-8 ovarian it was greater than 100 µM. For the same compound, the TGI in the assay with SF-268 CNS is greater than 100 µM; in the assay on SF-539 CNS, 52.9 µM; with SK-MEL-2 melanoma, greater than 100 µM; with SW-620 colon, greater than 100 µM.

`Clc1nc(Cl)c(Cl)c(-c2ccccc2)n1`: the TGI in the assay with ACHN renal was 33.5 µM; in the assay on HCC-2998 colon it was 78 µM; in the assay with HCT-15 colon, greater than 100 µM; in the assay with HL-60(TB) leukemia, greater than 100 µM; in the assay on NCI-H23 lung, 35 µM; with OVCAR-8 ovarian, greater than 100 µM. Also, the TGI in the assay with SF-268 CNS was determined as 61.6 µM; in the assay with SF-539 CNS, 31.5 µM; in the assay with SK-MEL-2 melanoma, 51.7 µM; in the assay with SW-620 colon it was 5.62 µM.

Turning to `Cc1cn(C2CC(N(O)Cc3ccccc3)C(CO[Si](C)(C)C(C)(C)C)O2)c(=O)[nH]c1=O` (stereo not given), the TGI in the assay with ACHN renal is 98.1 µM and 31.4 µM; with HCC-2998 colon, 41.7 µM and 34.3 µM; in the assay with HCT-15 colon, 96.6 µM; with HL-60(TB) leukemia, greater than 100 µM; with NCI-H23 lung, 66.3 µM and 31.3 µM; with OVCAR-8 ovarian, 84.1 µM and 32 µM. Moreover, the TGI is > 100 µM and 31 µM in the assay with SF-268 CNS; 33.2 µM and 29.5 µM in the assay on SF-539 CNS; 38.3 µM in the assay on SK-MEL-2 melanoma; 69.2 µM and 34.1 µM in the assay on SW-620 colon. The GI50 with SF-268 CNS was 34.6 µM and 16.7 µM.

In the case of `COc1cc2c(c(OC)c1OC)-c1ccc(OC)c(=O)cc1[C@@H](NC(=O)c1ccccc1)CC2`, the GI50 with ACHN renal was 104 nM; in the assay with HCC-2998 colon, less than 3 nM; in the assay on HCT-15 colon, 44.4 nM; in the assay with OVCAR-8 ovarian, 9.35 nM and 13.8 nM; in the assay with SF-539 CNS it was less than 0.003 µM; with SK-MEL-2 melanoma, less than 0.003 µM. Moreover, in the assay with SW-620 colon, the GI50 is less than 0.003 µM. The TGI was 30 µM and > 100 µM in the assay on ACHN renal; less than 0.013 µM with HL-60(TB) leukemia; 2.32 µM in the assay with NCI-H23 lung; 30 µM and 13.8 µM in the assay on OVCAR-8 ovarian; 33.1 µM with SF-268 CNS; < 0.003 µM and 0.017 µM in the assay with SF-539 CNS. In addition, in the assay on SW-620 colon, the TGI is 30 µM and > 81.4 µM.

For the compound `O=C1OC(c2ccccc2)=N/C1=C\c1cccc2ccccc12`, the TGI in the assay with ACHN renal, in the assay on HCC-2998 colon, in the assay on HCT-15 colon, with HL-60(TB) leukemia, in the assay with NCI-H23 lung and with OVCAR-8 ovarian was greater than 100 µM in each case. For the same compound, the TGI in the assay on SF-268 CNS, with SF-539 CNS, with SK-MEL-2 melanoma and in the assay with SW-620 colon was greater than 100 µM in each case.
